The text below walks through data of patent publication US8394858B2, “Cyclohexane derivatives and uses thereof” (Novartis AG, priority 2009, dated 2013).

The structures appear in SMILES notation.

In general, IC50 refers to the concentration that inhibits the measured activity by half.

T1 sequence (O00763 144-2458): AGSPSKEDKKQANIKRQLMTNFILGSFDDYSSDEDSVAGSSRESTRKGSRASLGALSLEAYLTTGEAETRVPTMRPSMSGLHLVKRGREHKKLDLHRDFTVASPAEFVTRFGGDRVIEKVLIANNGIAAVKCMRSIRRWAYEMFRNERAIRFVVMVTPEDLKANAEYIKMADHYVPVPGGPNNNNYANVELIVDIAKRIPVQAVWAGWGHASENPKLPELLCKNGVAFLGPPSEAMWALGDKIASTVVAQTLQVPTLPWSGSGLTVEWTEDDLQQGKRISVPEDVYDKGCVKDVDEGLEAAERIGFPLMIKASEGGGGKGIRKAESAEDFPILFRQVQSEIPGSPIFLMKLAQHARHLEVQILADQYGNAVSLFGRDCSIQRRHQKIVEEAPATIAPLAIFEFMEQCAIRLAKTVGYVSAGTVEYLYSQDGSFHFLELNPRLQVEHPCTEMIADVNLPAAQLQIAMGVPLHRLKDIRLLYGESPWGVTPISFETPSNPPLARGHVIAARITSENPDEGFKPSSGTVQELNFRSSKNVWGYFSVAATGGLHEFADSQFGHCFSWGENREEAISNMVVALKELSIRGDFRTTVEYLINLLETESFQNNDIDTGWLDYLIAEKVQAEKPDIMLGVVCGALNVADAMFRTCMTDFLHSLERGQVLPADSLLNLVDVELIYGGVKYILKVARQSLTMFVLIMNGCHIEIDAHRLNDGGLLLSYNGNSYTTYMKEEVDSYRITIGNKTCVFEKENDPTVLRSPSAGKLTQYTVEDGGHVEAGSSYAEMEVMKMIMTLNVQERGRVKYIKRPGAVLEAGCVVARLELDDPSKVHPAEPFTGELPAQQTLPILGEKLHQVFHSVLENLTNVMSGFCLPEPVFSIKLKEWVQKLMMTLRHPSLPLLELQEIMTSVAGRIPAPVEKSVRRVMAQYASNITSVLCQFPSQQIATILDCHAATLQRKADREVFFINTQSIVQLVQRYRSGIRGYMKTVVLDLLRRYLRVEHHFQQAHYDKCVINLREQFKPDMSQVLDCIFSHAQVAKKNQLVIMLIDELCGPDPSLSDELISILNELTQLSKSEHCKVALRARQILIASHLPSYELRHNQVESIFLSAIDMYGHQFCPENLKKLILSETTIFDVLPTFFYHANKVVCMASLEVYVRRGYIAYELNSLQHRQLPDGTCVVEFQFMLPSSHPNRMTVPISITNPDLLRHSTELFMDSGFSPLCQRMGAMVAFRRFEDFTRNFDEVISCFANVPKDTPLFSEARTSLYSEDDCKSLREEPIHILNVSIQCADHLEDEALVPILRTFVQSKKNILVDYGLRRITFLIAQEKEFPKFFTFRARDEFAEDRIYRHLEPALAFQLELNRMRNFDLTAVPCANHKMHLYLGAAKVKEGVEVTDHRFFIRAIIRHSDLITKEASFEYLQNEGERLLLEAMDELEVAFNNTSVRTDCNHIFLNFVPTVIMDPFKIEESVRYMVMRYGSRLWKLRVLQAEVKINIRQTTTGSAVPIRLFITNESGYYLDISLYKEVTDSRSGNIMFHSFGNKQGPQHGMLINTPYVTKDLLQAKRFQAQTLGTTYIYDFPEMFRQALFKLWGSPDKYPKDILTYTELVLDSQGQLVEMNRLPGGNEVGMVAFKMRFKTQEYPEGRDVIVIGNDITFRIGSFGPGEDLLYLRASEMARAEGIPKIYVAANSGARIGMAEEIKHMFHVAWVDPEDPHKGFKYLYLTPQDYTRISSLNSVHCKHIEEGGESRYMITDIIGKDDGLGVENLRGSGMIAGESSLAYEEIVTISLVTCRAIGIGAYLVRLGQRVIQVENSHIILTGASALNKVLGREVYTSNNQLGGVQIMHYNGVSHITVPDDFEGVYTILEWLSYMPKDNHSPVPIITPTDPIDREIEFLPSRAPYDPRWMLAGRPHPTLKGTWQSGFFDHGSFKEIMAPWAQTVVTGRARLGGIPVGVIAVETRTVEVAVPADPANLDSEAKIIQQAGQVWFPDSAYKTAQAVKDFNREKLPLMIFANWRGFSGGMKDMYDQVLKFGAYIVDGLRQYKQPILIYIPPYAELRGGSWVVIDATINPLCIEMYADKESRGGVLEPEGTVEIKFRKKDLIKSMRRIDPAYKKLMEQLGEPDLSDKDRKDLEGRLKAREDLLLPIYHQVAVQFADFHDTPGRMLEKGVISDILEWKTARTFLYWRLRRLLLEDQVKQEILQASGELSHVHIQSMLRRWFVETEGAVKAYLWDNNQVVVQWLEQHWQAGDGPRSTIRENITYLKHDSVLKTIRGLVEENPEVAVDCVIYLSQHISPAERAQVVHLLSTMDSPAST

This assay concerns the target T1, human acetyl-CoA carboxylase 2 (ACC2) (Homo sapiens, UniProt O00763).
T1 construct: The cDNA encoding amino acids 144 to 2458 of human acetyl-CoA carboxylase 2; made in house; host or cells: Sf9 insect cells (baculovirus, pFastBac1)
Description: Acetyl-CoA carboxylase enzyme assay (malonyl-CoA formation by LC/MS/MS). It counts as biochemical. To be noted: recombinant human ACC2 (amino acids 144 to 2458), 50 μM acetyl-CoA, 120 μM ATP, 2 mM KHCO3. The text has this:
The cDNA encoding amino acids 144 to 2458 of human acetyl-CoA carboxylase 2 (ACC2, GenBank Accession # NM_001093) was cloned into the SalI and NotI sites of pFastBac1 (Invitrogen; Carlsbad, Calif.). The resulting plasmid was used to generate a recombinant ACC2 baculovirus that was amplified and titered according to the protocols in the Bac-to-Bac baculovirus expression system manual (Invitrogen). The titered virus was used to infect Sf9 cells grown in Ex-Cell 420 serum-free medium (JRH Biosciences; Lenexa, Kans.). At 48 hours post-infection, the cells were harvested and stored at −80° C. until purification. ACC2 was purified using ammonium sulfate precipitation and anion exchange chromatography.
The enzymatic assay was run as follows: 30 μL of reaction buffer (100 mM HEPES pH 7.5, 20 mM MgCl2, 20 mM potassium citrate, 2 mM DTT) was added to a 384-well microtiter plate followed by 2 μL of the test compound (or 100% DMSO control). ACC2 protein (10 μL of a 50 nM working solution) was added to plate, which was incubated at room temperature for 15 minutes. A 30 μL addition of substrate solution (50 μM acetyl-CoA, 120 μM ATP, 2 mM KHCO3) was used to initiate the reactions which were quenched with 6% acetic acid (40 μL). ACC catalyzed malonyl-CoA formation was detected by LC/MS/MS using a Cohesive Technologies LX Series multiplex LC/MS/MS system configured with four binary pumps (Agilent Technologies; Palo Alto, Calif.), a dual arm autosampler (Leap Technologies; Cary, N.C.), and one Quattro Micro triple quadrupole mass spectrometer (Waters, Milford, Mass.), all run by Aria Software version 1.5 (Cohesive Technologies; Franklin, Mass.). Four samples were injected (20 μL) onto four Phenosphere NEXT C18 30×2 mm 5 μm columns (Phenomenex; Torrance, Calif.), eluted by four separate pumps, running identical gradients, through a column switching manifold with the one outlet fitted to the electrospray (ESI) source. Malonyl-CoA was eluted with 5 mM ammonium acetate, pH 4.5 (Buffer A) and 100% acetonitrile (Buffer B) via a step gradient. Argon was used as the collision gas and the following species were monitored via MRM detection: malonyl-CoA (853.8>346.9), internal standard (A: [^13C3]-malonyl-CoA, 857>350). The lower limit of detection is 0.3 uM for malonyl-CoA in this assay.
Turning to `CC(C)(O)[C@@H](NC(=O)[C@H]1CC[C@H](NS(=O)(=O)c2ccc(C(F)(F)F)cc2)CC1)c1ccccc1` [Example 1, (1r,4S)—N—((S)-2-Hydroxy-2-methyl-1-phenylpropyl)-4-(4-(trifluoromethyl)phenylsulfonamido)cyclohexanecarboxamide], the IC50 stood at 0.025 µM.

On to `O=C(N[C@@H](c1ccccc1)C(F)(F)F)[C@H]1CC[C@H](NS(=O)(=O)c2ccc(C(F)(F)F)cc2)CC1` [Example 72], for which the IC50 worked out at 0.094 µM.

As for `C[C@H](O)[C@@H](NC(=O)[C@H]1CC[C@H](NS(=O)(=O)c2ccc(C(F)(F)F)cc2)CC1)c1ccccc1` [Example 171, (1r,4S)—N-((1S,2R)-2-Hydroxy-1-phenylpropyl)-4-(4-(trifluoromethyl)phenylsulfonamido)cyclohexancarboxamide], the concentration for half-maximal inhibition (IC50) was found to be 0.09 µM.

Take `Cc1[nH]cnc1-c1ccc(S(=O)(=O)N[C@H]2CC[C@H](C(=O)N[C@H](C)c3ccc(F)cc3)CC2)cc1` [Example 339]: the concentration for half-maximal inhibition (IC50) was found to be 0.025 µM.

Regarding `C[C@@H](NC(=O)[C@H]1CC[C@H](NS(=O)(=O)c2ccc(-c3ccc(CN4CCOCC4)cc3)cc2)CC1)c1ccc(F)cc1` [Example 359], the half-inhibitory concentration (IC50) was determined as 0.052 µM.

On to `C[C@@H](NC(=O)[C@H]1CC[C@H](NS(=O)(=O)c2ccc(-c3ccc(CNCC(=O)O)cc3)cc2)CC1)c1ccc(F)cc1` [Example 370], for which the IC50 stood at 0.01 µM.

In the case of `C[C@@H](NC(=O)[C@H]1CC[C@H](NS(=O)(=O)c2ccc(-c3ccc(CCN)cc3)cc2)CC1)c1ccc(F)cc1` [Example 378], the IC50 stood at 0.01 µM.

Take `C[C@@H](NC(=O)[C@H]1CC[C@H](NS(=O)(=O)c2ccc(-c3ccc(OCCN4CCOCC4)cc3)cc2)CC1)c1ccc(F)cc1` [Example 385]: the IC50 is 0.01 µM.

With `CC(C)(O)[C@@H](NC(=O)[C@H]1CC[C@H](NS(=O)(=O)c2ccc(-c3ccccc3)cc2)CC1)c1ccccc1` [Example 395], the IC50 was 0.01 µM.

Take `O=C(O)CCc1ccc(-c2ccc(S(=O)(=O)N[C@H]3CC[C@H](C(=O)N4CCC[C@@H]4c4ccc(F)cc4)CC3)cc2)cc1` [Example 410]: the IC50 worked out at 0.09 µM.

Consider `O=C(O)CCc1ccc(-c2ccc(S(=O)(=O)N[C@H]3CC[C@H](C(=O)N4CCN(c5ccccn5)CC4c4ccccc4)CC3)cc2)cc1` (some centres unmarked) [Example 414], for which the 50% inhibitory concentration (IC50) was 0.01 µM.

As for `O=C(O)CCc1ccc(-c2ccc(S(=O)(=O)N[C@H]3CC[C@H](C(=O)N4CCOC[C@@H]4c4ccccc4)CC3)cc2)cc1` [Example 419], the IC50 came out at 0.025 µM.

As to `O=C1CN(C(=O)[C@H]2CC[C@H](NS(=O)(=O)c3ccc(-c4ccccc4)cc3)CC2)C(c2ccccc2)CN1` (some centres unmarked) [Example 428], the IC50 was 0.77 µM.

In the case of `CC(C)(O)[C@@H](NC(=O)[C@]1(C)CC[C@@H](NS(=O)(=O)c2ccc(C(F)(F)F)cc2)CC1)c1ccccc1` [Example 448, (1r,4S)—N—((S)-2-Hydroxy-2-methyl-1-phenylpropyl)-1-methyl-4-(4-(trifluoromethyl)phenylsulfonamido)cyclohexanecarboxamide], the 50% inhibitory concentration (IC50) was determined as 0.04 µM.
